Measured values from patent publication US8877707B2, “Inhibitors of HCV NS5A” (Presidio Pharmaceuticals, Inc., priority 2010, dated 2014).
pEC50: −log10 of the molar value. Read-outs that look alike come from different tables or passages of the source.

System: HCV genotype 1b replicon in Huh 7 cells
Assay: HCV replicon assay (1b_Huh-Luc/Neo-ET cell line, luciferase readout)
Assay type: cell-based
Details: Hepatitis C virus, read-out: Inhibition of HCV genotype 1b
Outline: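 Replicon level was read as luciferase signal after 72 h compound exposure, triplicate wells, starting the day after cells were plated. Cell line: 1b_Huh-Luc/Neo-ET. Values normalised to control as percent, and EC50 fitted with a variable-slope sigmoid; determinations repeated.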

[1] = Table 1, genotype 1b replicon, Huh 7 cells, 72 h, luciferase
[2] = Table 2, genotype 1b replicon, Huh 7 cells, 72 h, luciferase

SMILES | pEC50 [1] | other results
COC(=O)N[C@H](C(=O)N1CCC[C@H]1c1ncc(-c2ccc3cc(-c4cc5[nH]c([C@@H]6CCCN6C(=O)[C@@H](NC(=O)OC)[C@@H](C)OC)nc5cc4F)ccc3c2)[nH]1)[C@@H](C)OC [compound 701] |  | pEC50 (Huh-7, HCV 1b replicon): > 9.00
COC(=O)N[C@H](C(=O)N1CCC[C@H]1c1ncc(-c2ccc(-c3ccc4cc(-c5c[nH]c([C@@H]6CCCN6C(=O)[C@H](NC(=O)OC6CCOCC6)c6ccccc6)n5)cnc4c3)nc2)[nH]1)C(C)C [compound 81] | > 9.00 | 
COC(=O)N[C@@H](C)C(=O)N1CCOC[C@H]1c1ncc(-c2ccc3cc(-c4ccc(-c5cnc([C@@H]6CCCN6C(=O)[C@H](NC(=O)OC)c6ccccc6)[nH]5)cc4)ccc3c2)[nH]1 [compound 326] |  | pEC50 [2]: > 9.00
CC[C@H](C)[C@H](NC(=O)OC)C(=O)N1CCC[C@H]1c1nc2ccc(-c3ccc4cc(-c5cnc([C@@H]6CCCN6C(=O)[C@@H](NC(=O)OC)[C@@H](C)OC)[nH]5)ccc4c3)cc2[nH]1 [compound 511] |  | pEC50 (Huh-7, HCV 1b replicon): > 9.00
COC(=O)N[C@H](C(=O)N1CCC[C@H]1c1ncc(-c2ccc(-c3ccc4cc(-c5c[nH]c([C@@H]6CCCN6C(=O)[C@H](NC(=O)OC)c6ccccc6)n5)ccc4c3)cc2)[nH]1)C1CCOCC1 [compound 105] | > 9.00 | 
COC(=O)N[C@H](C(=O)N1CCC[C@H]1c1nc(-c2ccc3cc(-c4ccc(-c5cnc([C@@H]6CCCN6C(=O)[C@@H](NC(=O)OC)C(C)C)[nH]5)cc4)cnc3c2)c[nH]1)C(C)C [compound 21] | > 9.00 | 
COC[C@H](NC(=O)OC)C(=O)N1CCC[C@H]1c1ncc(-c2ccc3cc(-c4ccc5nc([C@@H]6CCCN6C(=O)[C@H](COC)NC(=O)OC)[nH]c5c4)ccc3c2)[nH]1 [345-1] |  | pEC50 [2]: > 9.00
CC[C@H](C)[C@H](NC(=O)OC)C(=O)N1CCC[C@H]1c1ncc(-c2ccc3cc(-c4ccc5nc([C@@H]6CCCN6C(=O)[C@@H](NC(=O)OC)[C@@H](C)CC)[nH]c5c4)ncc3c2)[nH]1 [compound 374] |  | pEC50 [2]: > 9.00
COC(=O)N[C@H](C(=O)N1CCC[C@H]1c1ncc(-c2ccc3cc(-c4ccc(-c5cnc([C@@H]6CCCN6C(=O)[C@H](NC(=O)OC)c6ccccc6)[nH]5)nn4)ccc3c2)[nH]1)C1CCOCC1 [compound 315] |  | pEC50 [2]: > 9.00
COC(=O)N[C@H](C(=O)N1CCC[C@H]1c1ncc(-c2ccc3cc(-c4ccc5nc([C@@H]6CCCN6C(=O)[C@@H](NC(=O)OC)[C@@H](C)O)[nH]c5c4)ccc3c2)[nH]1)[C@@H](C)O [compound 175] | > 9.00 | 
COC(=O)N[C@H](C(=O)N1CCCC[C@H]1c1ncc(-c2ccc(-c3ccc4cc(-c5cnc([C@@H]6CCCN6C(=O)[C@@H](NC(=O)OC)C(C)C)[nH]5)ccc4n3)cc2)[nH]1)C(C)C [compound 455] |  | pEC50 (Huh-7, HCV 1b replicon): > 9.00
COC(=O)N[C@H](C(=O)N1CCC[C@H]1C(=O)Nc1ccc(-c2ccc3cc(-c4cnc([C@@H]5CCCN5C(=O)[C@@H](NC(=O)OC)C5CCOCC5)[nH]4)ccc3n2)cc1)C1CCOCC1 [compound 542] |  | pEC50 (Huh-7, HCV 1b replicon): 8.00 to 9.00
COC(=O)NC(C(=O)N1CCC[C@H]1c1ncc(-c2ccc3nc(-c4ccc(-c5cnc([C@@H]6CCCN6C(=O)[C@@H](NC(=O)OC)C6CCOCC6)[nH]5)cc4F)ccc3c2)[nH]1)C1CCOC1 (stereo partly shown) [compound 164] | > 9.00 | 
COC(=O)N[C@H](C(=O)N1CCC[C@H]1c1ncc(-c2ccc3cc(-c4ccc5nc([C@@H]6CCCN6C(=O)[C@@H](NC(=O)OC)[C@@H](C)OC)[nH]c5c4)ncc3c2)[nH]1)[C@@H](C)OC [compound 377] |  | pEC50 [2]: > 9.00
COC(=O)N[C@H](C(=O)N1C[C@H](O)C[C@H]1c1ncc(-c2ccc(-c3ccc4cc(-c5cnc([C@@H]6CCCN6C(=O)[C@H](NC(=O)OC6CCOCC6)c6ccccc6)[nH]5)ccc4n3)cc2)[nH]1)C(C)C [compound 149] | > 9.00 | 
COC(=O)N[C@@H](C(=O)N1CCC[C@H]1c1nc(-c2ccc3nc(-c4ccc(-c5cnc([C@@H]6CCCN6C(=O)[C@H](NC(=O)OC)c6ccccc6)[nH]5)cc4)cc(OC)c3c2)c[nH]1)c1ccccc1 [compound 78] | > 9.00 | 
COC(=O)N[C@@H](C(=O)N1CCC[C@H]1c1ncc(-c2ccc3nc(-c4ccc(-c5cnc([C@@H]6CN(C(C)=O)CCN6C(=O)[C@H](NC(=O)OC)c6ccccc6)[nH]5)cc4)ccc3c2)[nH]1)c1ccccc1 [compound 494] |  | pEC50 (Huh-7, HCV 1b replicon): > 9.00
COC(=O)N[C@H](C(=O)N1CCC[C@H]1c1ncc(-c2ccc(-c3cccc4c(-c5cnc([C@@H]6CCCN6C(=O)[C@@H](NC(=O)OC)C(C)C)[nH]5)cccc34)cc2)[nH]1)C(C)C [compound 20] | > 9.00 | 
COC(=O)N[C@H](C(=O)N1CCOC[C@H]1c1ncc(-c2ccc3cc(-c4ccc(-c5cnc([C@@H]6CCCN6C(=O)[C@H](NC(=O)OC)c6ccccc6)[nH]5)cc4)ccc3c2)[nH]1)C(C)C [compound 138] | > 9.00 | 
COC(=O)N[C@H](C(=O)N1CCC[C@H]1c1ncc(-c2ccc3oc(-c4ccc(-c5cnc([C@@H]6CCCN6C(=O)[C@H](NC(=O)OC(C)(C)C)c6ccccc6)[nH]5)cc4)nc3c2)[nH]1)C(C)C [compound 535] |  | pEC50 (Huh-7, HCV 1b replicon): > 9.00

SMILES | pEC50 [1] | other results
COC(=O)N[C@H](C(=O)N1CCC[C@H]1c1nc(-c2ccc3cc(-c4ccc(-c5cnc([C@@H]6CCCN6C(=O)[C@@H](NC(=O)OC)C6CCOCC6)[nH]5)nc4)ccc3c2)c[nH]1)C(C)C [compound 84] | > 9.00 | 
COC[C@H](NC(=O)OC)C(=O)N1CCOC[C@H]1c1ncc(-c2ccc3cc(-c4ccc(-c5cnc([C@@H]6CCCN6C(=O)[C@H](NC(=O)OC)c6ccccc6)[nH]5)cc4)ccc3c2)[nH]1 [325-1] |  | pEC50 [2]: > 9.00
COC(=O)N[C@H](C(=O)N1CCC[C@H]1c1ncc(-c2ccc3cc(-c4cnc(-c5cnc([C@@H]6CCCN6C(=O)[C@@H](NC(=O)OC)C(C)C)[nH]5)cn4)ccc3c2)[nH]1)C(C)C [compound 506] |  | pEC50 (Huh-7, HCV 1b replicon): > 9.00
COC(=O)N[C@H](C(=O)N1CCC[C@H]1c1ncc(-c2ccc(-c3ccc4nc(-c5cnc([C@@H]6CCCN6C(=O)[C@@H](NC(=O)OC)C(C)C)[nH]5)sc4c3)cc2)[nH]1)C(C)C [compound 258] | > 9.00 | 
COC(=O)N[C@@H](C(=O)N1CCC[C@H]1c1nc(-c2ccc3c(c2)CCN(c2ccc(-c4cnc([C@@H]5CCCN5C(=O)[C@H](NC(=O)OC)c5ccccc5)[nH]4)cc2)C3=O)c[nH]1)c1ccccc1 [compound 289] | > 9.00 | 
CC[C@H](C)[C@H](NC(=O)OC)C(=O)N1CCC[C@H]1c1ncc(-c2ccc3cc(-c4cnc5nc([C@@H]6CCCN6C(=O)[C@@H](NC(=O)OC)[C@@H](C)CC)[nH]c5c4)ccc3c2)[nH]1 [compound 404] |  | pEC50 [2]: > 9.00
COC(=O)N[C@H](C(=O)N1CCCC[C@H]1c1ncc(-c2ccc3cc(-c4ccc(-c5cnc([C@@H]6CCCN6C(=O)[C@@H](NC(=O)OC)C(C)C)[nH]5)cc4)ccc3c2)[nH]1)C(C)C [compound 307] |  | pEC50 [2]: > 9.00
COC(=O)N[C@H](C(=O)N1CCC[C@H]1c1nc(-c2ccc3cc(-c4ccc(-c5cnc([C@@H]6CCCN6C(=O)[C@H](NC(=O)NC6CC6)c6ccccc6)[nH]5)cc4)ccc3c2)c[nH]1)C(C)C [compound 24] | > 9.00 | 
COC(=O)N[C@H](C(=O)N1CCC[C@H]1c1ncc(-c2ccc(-c3ccc4cc(-c5c[nH]c([C@@H]6CCCN6C(=O)[C@H](NC(=O)NC6CC6)c6ccccc6)n5)ccc4c3)cc2)[nH]1)C(C)C [compound 29] | > 9.00 | 
COC(=O)N[C@@H](C(=O)N1CCC[C@H]1c1ncc(-c2ccc(-c3nc4cc(-c5cnc([C@@H]6CCCN6C(=O)[C@H](NC(=O)OC)c6ccccc6)[nH]5)ccc4o3)cc2)[nH]1)c1ccccc1 [compound 237] | > 9.00 | 
COC(=O)N[C@H](C(=O)N1CCC[C@H]1c1ncc(-c2ccc(-c3ccc4cc(-c5c[nH]c([C@@H]6CCCN6C(=O)[C@H](NC(=O)NC(C)(C)C)c6ccccc6)n5)ccc4c3)cc2)[nH]1)C(C)C [compound 23] | > 9.00 | 
COC(=O)N[C@H](C(=O)N1CCC[C@H]1c1nc2ccc(-c3ccc4cc(-c5cnc([C@@H]6CCCN6C(=O)[C@@H](NC(=O)OC)[C@@H](C)OC)[nH]5)ccc4c3)cc2[nH]1)C(C)C [compound 510] |  | pEC50 (Huh-7, HCV 1b replicon): > 9.00
COC(=O)N[C@@H](C)C(=O)N1CCC[C@H]1CNC(=O)c1ccc(-c2ccc3cc(-c4cnc([C@@H]5CCCN5C(=O)[C@H](C)NC(=O)OC)[nH]4)ccc3c2)cc1 [compound 564] |  | pEC50 (Huh-7, HCV 1b replicon): 6.00 to 8.00
COC(=O)N[C@H](C(=O)N1CCC[C@H]1c1ncc(-c2ccc3cc(-c4cc5[nH]c([C@@H]6CCCN6C(=O)[C@@H](NC(=O)OC)C(C)C)nc5cc4F)ccc3c2)[nH]1)C(C)C [compound 700] |  | pEC50 (Huh-7, HCV 1b replicon): > 9.00
COC(=O)N[C@H](C(=O)N1CCC[C@H]1CNC(=O)c1ccc2cc(-c3ccc(-c4cnc([C@@H]5CCCN5C(=O)[C@@H](NC(=O)OC)[C@@H](C)OC)[nH]4)cc3)ccc2c1)[C@@H](C)OC [compound 575] |  | pEC50 (Huh-7, HCV 1b replicon): > 9.00
COC(=O)N[C@H](C(=O)N1CCC[C@H]1c1ncc(-c2ccc3cc(-c4ccc5nc([C@@H]6CCCN6C(=O)[C@@H](c6ccccc6)N6CCOCC6)[nH]c5c4)ccc3c2)[nH]1)C(C)C [compound 213] | > 9.00 | 
COC(=O)N[C@H](C(=O)N1CCC[C@H]1c1nc(-c2cnc3cc(-c4ccc(-c5cnc([C@@H]6CCCN6C(=O)[C@@H](NC(=O)OC)C6CCOCC6)[nH]5)cn4)ccc3c2)c[nH]1)C(C)C [compound 62] | > 9.00 | 
COC(=O)N[C@H](C(=O)N1CCC[C@H]1c1nc(-c2cnc3cc(-c4ccc(-c5cnc([C@@H]6CCCN6C(=O)[C@H](NC(=O)OC6CCOCC6)c6ccccc6)[nH]5)cc4)ccc3c2)c[nH]1)C1CCOCC1 [compound 89] | > 9.00 | 
CCNC(=O)N[C@@H](C(=O)N1CCC[C@H]1c1nc(-c2ccc3nc(-c4ccc(-c5cnc([C@@H]6CCCN6C(=O)[C@@H](NC(=O)OC)C(C)C)[nH]5)cc4)ccc3c2)c[nH]1)c1ccccc1 [compound 37] | > 9.00 | 
COC(=O)N[C@H](C(=O)N1CCC[C@H]1c1ncc(-c2ccc3cc(-c4ccc5nc([C@@H]6CCCN6C(=O)[C@H](NC(=O)OC)c6ccccc6)[nH]c5c4)ccc3c2)[nH]1)C(C)C [compound 181] | > 9.00 | 
